Data taken from ChEMBL document CHEMBL4507319 (2021).

Tests used:
[1] = target: CDK6/cyclin D3 (Homo sapiens) (UniProt P30281+Q00534); experiment: CDK6/cyclinD3(h) Eurofins kinase panel; type: protein-complex assay; settings: Compound concentration 1.0 uM
[2] = target: SRSF protein kinase 3 (Homo sapiens) (UniProt Q9UPE1); experiment: MSSK1(h) Eurofins kinase panel; settings: Compound concentration 1.0 uM
[3] = target: Protein-tyrosine kinase 6 (Homo sapiens) (UniProt Q13882); experiment: BRK(h) Eurofins kinase panel; settings: Compound concentration 1.0 uM
[4] = target: Ribosomal protein S6 kinase alpha-4 (Homo sapiens) (UniProt O75676); experiment: MSK2(h) Eurofins kinase panel; settings: Compound concentration 1.0 uM
[5] = target: Mitogen-activated protein kinase 3 (Homo sapiens) (UniProt P27361); experiment: MAPK1(h) Eurofins kinase panel; settings: Compound concentration 1.0 uM
[6] = target: T1, NUAK family SNF1-like kinase 2 (Homo sapiens) (UniProt Q9H093); experiment: NUAK2(h) Eurofins kinase panel; settings: Compound concentration 1.0 uM
T1 sequence (whole entry): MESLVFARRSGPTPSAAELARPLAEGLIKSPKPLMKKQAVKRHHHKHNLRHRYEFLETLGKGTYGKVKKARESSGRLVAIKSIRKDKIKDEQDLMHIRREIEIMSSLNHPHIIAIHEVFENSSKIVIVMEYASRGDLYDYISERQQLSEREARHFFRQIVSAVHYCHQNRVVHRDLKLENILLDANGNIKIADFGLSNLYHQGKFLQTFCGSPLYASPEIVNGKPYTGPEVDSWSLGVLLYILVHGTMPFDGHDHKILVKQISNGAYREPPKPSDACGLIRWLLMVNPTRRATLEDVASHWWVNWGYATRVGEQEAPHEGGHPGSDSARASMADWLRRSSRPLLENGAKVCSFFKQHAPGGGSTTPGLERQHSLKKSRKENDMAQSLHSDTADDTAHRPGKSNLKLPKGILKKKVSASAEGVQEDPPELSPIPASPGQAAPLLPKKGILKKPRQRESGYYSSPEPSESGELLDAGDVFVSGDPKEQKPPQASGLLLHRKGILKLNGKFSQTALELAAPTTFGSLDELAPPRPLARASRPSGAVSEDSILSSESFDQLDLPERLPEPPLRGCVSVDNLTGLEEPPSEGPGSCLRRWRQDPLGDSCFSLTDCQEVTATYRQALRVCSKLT

MDA-MB-231 = experiment: MDA-MB- 231 cell line Proliferation assay; type: functional, Homo sapiens; settings: time 3 day
IMR-5/75 = experiment: IMR-5/75 cell line Proliferation assay; type: functional, Homo sapiens; settings: time 6 day
[7] = target: Mitogen-activated protein kinase kinase kinase 20 (Homo sapiens) (UniProt Q9NYL2); experiment: ZAK(h) Eurofins kinase panel; settings: Compound concentration 1.0 uM
[8] = target: Dual specificity protein kinase CLK3 (Homo sapiens) (UniProt P49761); experiment: CLK3(h) Eurofins kinase panel; settings: Compound concentration 1.0 uM
[9] = target: Ribosomal protein S6 kinase alpha-6 (Homo sapiens) (UniProt Q9UK32); experiment: Rsk4(h) Eurofins kinase panel; settings: Compound concentration 1.0 uM
[10] = target: T2, Serine/threonine-protein kinase Chk1 (Homo sapiens) (UniProt O14757); experiment: CHK1(h) Eurofins kinase panel; settings: Compound concentration 1.0 uM
T2 sequence (whole entry): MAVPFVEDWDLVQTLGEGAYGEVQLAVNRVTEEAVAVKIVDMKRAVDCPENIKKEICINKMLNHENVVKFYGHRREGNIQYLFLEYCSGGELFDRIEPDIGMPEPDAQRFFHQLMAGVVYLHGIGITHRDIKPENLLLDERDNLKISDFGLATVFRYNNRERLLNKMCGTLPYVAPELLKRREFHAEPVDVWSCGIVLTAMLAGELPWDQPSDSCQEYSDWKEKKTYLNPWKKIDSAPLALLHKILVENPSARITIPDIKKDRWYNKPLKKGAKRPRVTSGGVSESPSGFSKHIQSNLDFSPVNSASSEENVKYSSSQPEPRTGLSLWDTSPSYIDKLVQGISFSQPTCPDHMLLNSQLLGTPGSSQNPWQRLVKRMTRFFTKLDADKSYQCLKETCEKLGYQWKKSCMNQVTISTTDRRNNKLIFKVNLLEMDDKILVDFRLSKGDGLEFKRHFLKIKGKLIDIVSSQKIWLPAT

[11] = target: Serine/threonine-protein kinase Nek6 (Homo sapiens) (UniProt Q9HC98); experiment: NEK6(h) Eurofins kinase panel; settings: Compound concentration 1.0 uM
[12] = target: PI3-kinase p110-alpha/p85-alpha (Homo sapiens) (UniProt P27986+P42336); experiment: PI3 Kinase(p110a/p85a)(h) Eurofins kinase panel; type: protein-complex assay; settings: Compound concentration 1.0 uM
[13] = target: Homeodomain-interacting protein kinase 1 (Homo sapiens) (UniProt Q86Z02); experiment: HIPK1(h) Eurofins kinase panel; settings: Compound concentration 1.0 uM
[14] = target: T3, NUAK family SNF1-like kinase 1 (Homo sapiens) (UniProt O60285); experiment: ARK5(h) Eurofins kinase panel; settings: Compound concentration 1.0 uM
T3 sequence (whole entry): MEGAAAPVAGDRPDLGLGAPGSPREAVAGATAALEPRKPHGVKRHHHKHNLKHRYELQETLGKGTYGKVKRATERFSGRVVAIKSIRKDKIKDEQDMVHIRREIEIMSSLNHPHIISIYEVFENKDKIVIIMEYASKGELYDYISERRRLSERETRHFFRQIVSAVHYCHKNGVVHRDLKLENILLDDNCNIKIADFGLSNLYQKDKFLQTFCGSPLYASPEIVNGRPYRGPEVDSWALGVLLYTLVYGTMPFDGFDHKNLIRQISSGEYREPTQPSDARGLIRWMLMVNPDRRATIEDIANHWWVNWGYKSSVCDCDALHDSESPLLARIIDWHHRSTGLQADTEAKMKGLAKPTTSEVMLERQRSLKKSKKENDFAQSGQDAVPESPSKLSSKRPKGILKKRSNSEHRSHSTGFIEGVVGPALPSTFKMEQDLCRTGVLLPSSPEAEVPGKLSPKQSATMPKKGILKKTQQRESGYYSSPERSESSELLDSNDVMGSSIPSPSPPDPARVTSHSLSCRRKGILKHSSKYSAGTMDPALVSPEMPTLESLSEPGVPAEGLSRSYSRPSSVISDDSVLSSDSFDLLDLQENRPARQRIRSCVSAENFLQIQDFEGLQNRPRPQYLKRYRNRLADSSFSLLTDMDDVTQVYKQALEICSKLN

[15] = target: Macrophage colony-stimulating factor 1 receptor (Homo sapiens) (UniProt P07333); experiment: Fms(h) Eurofins kinase panel; settings: Compound concentration 1.0 uM
[16] = target: Fibroblast growth factor receptor 3 (Homo sapiens) (UniProt P22607); experiment: FGFR3(h) Eurofins kinase panel; settings: Compound concentration 1.0 uM
Chain of Fibroblast growth factor receptor 3 (Homo sapiens) (P22607 23-806 limits assumed): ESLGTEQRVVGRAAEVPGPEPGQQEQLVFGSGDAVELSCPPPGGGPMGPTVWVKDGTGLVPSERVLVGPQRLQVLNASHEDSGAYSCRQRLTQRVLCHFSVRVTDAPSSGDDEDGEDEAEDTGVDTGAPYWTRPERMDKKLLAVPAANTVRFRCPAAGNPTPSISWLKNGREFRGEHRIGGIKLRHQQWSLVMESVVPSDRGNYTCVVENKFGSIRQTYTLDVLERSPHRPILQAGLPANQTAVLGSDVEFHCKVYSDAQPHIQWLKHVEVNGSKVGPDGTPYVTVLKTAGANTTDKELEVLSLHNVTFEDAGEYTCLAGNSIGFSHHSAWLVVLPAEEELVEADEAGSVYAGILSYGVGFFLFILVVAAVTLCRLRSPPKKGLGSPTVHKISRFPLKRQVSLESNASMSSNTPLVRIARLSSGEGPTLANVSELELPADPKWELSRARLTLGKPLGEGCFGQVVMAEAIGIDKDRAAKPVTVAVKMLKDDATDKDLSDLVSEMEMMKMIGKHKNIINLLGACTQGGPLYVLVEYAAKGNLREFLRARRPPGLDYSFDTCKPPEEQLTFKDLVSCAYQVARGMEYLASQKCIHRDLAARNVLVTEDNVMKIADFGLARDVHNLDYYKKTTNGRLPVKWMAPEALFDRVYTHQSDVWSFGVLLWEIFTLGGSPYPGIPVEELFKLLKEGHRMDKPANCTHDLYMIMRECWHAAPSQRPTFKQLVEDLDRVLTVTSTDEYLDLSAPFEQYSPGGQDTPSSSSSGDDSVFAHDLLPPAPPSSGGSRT

Chain of Ribosomal protein S6 kinase alpha-6 (Homo sapiens) (Q9UK32 whole entry): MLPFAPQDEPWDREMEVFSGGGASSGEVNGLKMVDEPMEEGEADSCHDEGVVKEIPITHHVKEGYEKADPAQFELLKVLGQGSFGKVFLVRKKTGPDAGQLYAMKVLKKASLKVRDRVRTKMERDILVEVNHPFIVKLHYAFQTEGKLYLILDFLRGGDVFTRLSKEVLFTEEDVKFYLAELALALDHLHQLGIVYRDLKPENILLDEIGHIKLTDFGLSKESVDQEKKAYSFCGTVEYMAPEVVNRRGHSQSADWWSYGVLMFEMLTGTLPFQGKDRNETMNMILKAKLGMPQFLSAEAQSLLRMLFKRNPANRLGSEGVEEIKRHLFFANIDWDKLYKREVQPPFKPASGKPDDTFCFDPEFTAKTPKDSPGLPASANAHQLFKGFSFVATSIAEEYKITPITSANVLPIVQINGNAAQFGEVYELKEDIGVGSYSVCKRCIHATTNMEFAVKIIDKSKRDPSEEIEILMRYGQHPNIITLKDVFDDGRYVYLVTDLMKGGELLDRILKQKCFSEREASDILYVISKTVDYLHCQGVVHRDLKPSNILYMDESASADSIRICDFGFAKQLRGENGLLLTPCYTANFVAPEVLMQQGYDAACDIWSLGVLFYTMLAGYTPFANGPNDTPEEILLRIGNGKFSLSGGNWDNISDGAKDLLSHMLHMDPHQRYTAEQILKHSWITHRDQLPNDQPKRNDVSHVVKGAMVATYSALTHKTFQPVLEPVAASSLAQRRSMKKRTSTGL
Chain of Serine/threonine-protein kinase Nek6 (Homo sapiens) (Q9HC98 whole entry): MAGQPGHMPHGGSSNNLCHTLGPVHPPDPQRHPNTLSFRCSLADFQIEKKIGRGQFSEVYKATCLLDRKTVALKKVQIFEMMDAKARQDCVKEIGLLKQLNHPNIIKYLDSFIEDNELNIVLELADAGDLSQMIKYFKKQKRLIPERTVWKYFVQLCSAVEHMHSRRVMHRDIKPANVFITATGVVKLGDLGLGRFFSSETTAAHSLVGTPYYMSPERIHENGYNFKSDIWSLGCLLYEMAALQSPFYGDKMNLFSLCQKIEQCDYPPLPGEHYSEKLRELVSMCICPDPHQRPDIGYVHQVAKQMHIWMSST
Chain of Ribosomal protein S6 kinase alpha-4 (Homo sapiens) (O75676 whole entry, looked up): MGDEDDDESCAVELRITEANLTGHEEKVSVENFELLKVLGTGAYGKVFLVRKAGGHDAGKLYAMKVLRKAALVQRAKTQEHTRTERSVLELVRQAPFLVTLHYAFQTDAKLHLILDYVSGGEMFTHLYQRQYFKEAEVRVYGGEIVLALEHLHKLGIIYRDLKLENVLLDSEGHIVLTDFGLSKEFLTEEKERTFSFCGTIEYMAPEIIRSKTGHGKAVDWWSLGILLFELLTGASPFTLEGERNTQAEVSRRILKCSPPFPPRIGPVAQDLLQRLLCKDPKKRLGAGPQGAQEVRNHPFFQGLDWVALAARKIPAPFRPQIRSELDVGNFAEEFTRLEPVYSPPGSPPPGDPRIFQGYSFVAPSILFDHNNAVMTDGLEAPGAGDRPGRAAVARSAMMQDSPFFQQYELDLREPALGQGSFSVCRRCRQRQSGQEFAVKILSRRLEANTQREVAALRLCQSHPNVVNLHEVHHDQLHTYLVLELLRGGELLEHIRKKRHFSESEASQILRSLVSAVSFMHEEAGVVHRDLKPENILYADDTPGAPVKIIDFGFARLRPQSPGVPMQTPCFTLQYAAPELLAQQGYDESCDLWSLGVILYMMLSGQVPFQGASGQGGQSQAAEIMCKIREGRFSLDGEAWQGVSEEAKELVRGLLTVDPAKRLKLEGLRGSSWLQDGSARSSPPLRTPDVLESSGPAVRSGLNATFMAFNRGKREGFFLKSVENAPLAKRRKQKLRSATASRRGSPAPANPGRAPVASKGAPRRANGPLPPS
Chain of Dual specificity protein kinase CLK3 (Homo sapiens) (P49761 whole entry, looked up): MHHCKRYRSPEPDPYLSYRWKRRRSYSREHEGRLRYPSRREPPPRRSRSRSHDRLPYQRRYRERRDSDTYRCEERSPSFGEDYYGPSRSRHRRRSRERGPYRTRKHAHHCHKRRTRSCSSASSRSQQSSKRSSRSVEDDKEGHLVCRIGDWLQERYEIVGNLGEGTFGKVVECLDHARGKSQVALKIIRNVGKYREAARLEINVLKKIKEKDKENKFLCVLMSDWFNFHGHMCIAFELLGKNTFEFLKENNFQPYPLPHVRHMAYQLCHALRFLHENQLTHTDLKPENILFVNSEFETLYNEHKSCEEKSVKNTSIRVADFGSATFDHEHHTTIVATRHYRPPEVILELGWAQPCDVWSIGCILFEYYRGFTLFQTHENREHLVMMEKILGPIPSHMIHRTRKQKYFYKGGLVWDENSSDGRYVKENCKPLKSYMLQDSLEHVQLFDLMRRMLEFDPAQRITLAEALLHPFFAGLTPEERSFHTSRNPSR
Chain of Homeodomain-interacting protein kinase 1 (Homo sapiens) (Q86Z02 whole entry, looked up): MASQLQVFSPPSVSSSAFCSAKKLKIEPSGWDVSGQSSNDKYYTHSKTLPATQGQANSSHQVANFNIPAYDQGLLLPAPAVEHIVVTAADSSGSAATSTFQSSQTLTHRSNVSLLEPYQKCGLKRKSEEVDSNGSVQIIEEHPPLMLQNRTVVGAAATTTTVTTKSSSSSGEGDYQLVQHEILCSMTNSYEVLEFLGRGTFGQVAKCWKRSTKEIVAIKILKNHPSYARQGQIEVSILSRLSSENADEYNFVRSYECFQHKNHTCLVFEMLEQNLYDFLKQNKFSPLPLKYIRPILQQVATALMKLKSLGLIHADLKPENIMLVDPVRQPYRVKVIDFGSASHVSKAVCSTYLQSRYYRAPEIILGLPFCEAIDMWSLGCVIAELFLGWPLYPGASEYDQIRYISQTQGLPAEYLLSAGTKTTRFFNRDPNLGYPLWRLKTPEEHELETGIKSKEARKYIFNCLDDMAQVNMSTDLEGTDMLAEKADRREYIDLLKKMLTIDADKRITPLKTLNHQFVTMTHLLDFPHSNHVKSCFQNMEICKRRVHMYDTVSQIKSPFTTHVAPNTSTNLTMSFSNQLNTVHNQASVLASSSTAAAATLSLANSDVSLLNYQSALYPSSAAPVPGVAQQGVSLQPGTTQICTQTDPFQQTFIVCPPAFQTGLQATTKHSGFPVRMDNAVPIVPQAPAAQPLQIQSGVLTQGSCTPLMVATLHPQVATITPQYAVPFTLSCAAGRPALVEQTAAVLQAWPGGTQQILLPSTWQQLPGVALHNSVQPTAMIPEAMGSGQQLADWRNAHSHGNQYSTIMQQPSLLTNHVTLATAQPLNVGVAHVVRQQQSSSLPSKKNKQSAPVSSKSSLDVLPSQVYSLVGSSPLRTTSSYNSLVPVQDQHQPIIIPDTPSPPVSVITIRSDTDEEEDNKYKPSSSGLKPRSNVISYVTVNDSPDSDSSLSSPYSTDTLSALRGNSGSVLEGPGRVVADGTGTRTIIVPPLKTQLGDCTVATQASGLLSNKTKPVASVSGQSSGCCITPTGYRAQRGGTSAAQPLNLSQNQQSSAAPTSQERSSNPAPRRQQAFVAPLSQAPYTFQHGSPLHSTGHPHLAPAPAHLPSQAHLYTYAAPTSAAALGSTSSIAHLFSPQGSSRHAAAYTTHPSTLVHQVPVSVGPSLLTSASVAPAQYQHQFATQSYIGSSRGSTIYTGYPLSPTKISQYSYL
Chain of Mitogen-activated protein kinase 3 (Homo sapiens) (P27361 whole entry, looked up): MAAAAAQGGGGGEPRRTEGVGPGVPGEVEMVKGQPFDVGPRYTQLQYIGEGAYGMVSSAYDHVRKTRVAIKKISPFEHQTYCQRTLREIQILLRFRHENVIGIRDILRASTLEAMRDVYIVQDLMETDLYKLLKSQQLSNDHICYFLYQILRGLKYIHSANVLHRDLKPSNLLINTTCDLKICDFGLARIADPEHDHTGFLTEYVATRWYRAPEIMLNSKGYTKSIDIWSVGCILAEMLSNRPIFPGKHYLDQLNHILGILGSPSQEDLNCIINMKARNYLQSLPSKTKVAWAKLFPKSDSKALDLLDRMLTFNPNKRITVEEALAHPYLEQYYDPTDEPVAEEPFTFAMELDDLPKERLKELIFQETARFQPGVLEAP

CCc1ccccc1C(=O)Nc1n[nH]c2c(C)c(F)c(C3C(C#N)=C(C)N(C)C(C)=C3C#N)cc12 [BAY-3827]
% residual kinase activity [1]: 110% | % residual kinase activity [2]: 39% | % residual kinase activity [3]: 104% | % residual kinase activity [4]: 27% | % residual kinase activity [5]: 95% | % residual kinase activity [6]: 45% | Cell Proliferation IC50 (MDA-MB-231): >30 µM | Cell Proliferation IC50 (IMR-5/75): 21.3 µM | % residual kinase activity [7]: 99% | % residual kinase activity [8]: 109% | % residual kinase activity [9]: 2% | % residual kinase activity [10]: 112% | % residual kinase activity [11]: 94% | % residual kinase activity [12]: 99% | % residual kinase activity [13]: 100% | % residual kinase activity [14]: 21% | % residual kinase activity [15]: 99% | % residual kinase activity [16]: 99%
